From US20090136472A1, “Use of thiazole derivatives and analogues in disorders caused by free fatty acids” (priority 2005, published 2009)

Tests used:
MDA-MB-231 cells = assay: Test A cell proliferation assay (FFA/linolenic acid-stimulated, cell cycle analysis by flow cytometry); type: cell-based, human; conditions: 24 hours; for inhibition at 10 µM: Homo sapiens, at a concentration of 10 μM, cells in S-phase, read-out: percentage antagonist activity (inhibition of FFA induced cell proliferation); for inhibition at 10 µM / antagonism of free fatty acid stimulated cell proliferation: linolenic acid-stimulated MDA-MB-231 cells; for antagonism of free fatty acid stimulated cell proliferation: S-phase by propidium iodine staining
Method: Cytomics™ FC500 Flow Cytometer with CXP software (Beckman Coulter) MDA-MB-231 cells MDA-MB-231 cells were cultured in the propagation media D-MEM+1000 mg/L Glucose+GlutaMAX™ 1+Pyruvate supplemented with 10% V/V Foetal Bovine Serum and PEST (100 U/ml penicillin, 100 μg/mL streptomycin). Cells were seeded in 6 well plates to a density of 300000 cells/well in propagation media. After 24 hours, media was replaced with serum free D-MEM media.
Linolenic acid was diluted in DMSO to a concentration of 100 mM and added to the culture media to a final concentration of 100 μM.
Compounds were as dissolved in DMSO to a concentrations of 10 mM (Compounds of Examples 95 and 6 (Compound X and Compound Y, respectively)) and 40 mM (Compound of Example 4 (Compound Z)) and added to the culture media to a final concentration of 10 μM (X and Y) and 40 μM (Z) respectively.
After 24 hours in serum free media DMEM, linolenic acid (to a final concentration of […]) and compounds to be screened for activity were added to a final concentration of 10 μM (Compounds X and Y) and 40 μM (Compound Z) respectively. Final DMSO concentration was kept at 0.2% in all wells. After 24 hours of stimulation, cells were harvested and propidium iodine stained using a CyStain PI absolute T Kit according to manufacturer's recommendations. Cells were subsequently analyzed using a Cytomics™ FC500 Flow Cytometer with CXP software (Beckman Coulter) for cell cycle distribution. Cells were incubated with or without linolenic acid (LA) and the Compounds X, Y and Z for 24 hours at indicated concentrations. Cells in S-phase from untreated sample were set to 100% in each experiment.

Ob/Ob mice = assay: Test B insulin measurement study in diabetic Ob/Ob mice; type: in vivo; conditions: 1 mg/kg intraperitoneally once daily for 2 weeks
Method: Ultra sensitive rat insulin ELISA kit (Crystal Chen inc) according to manufacturer's recommendations.
Serum insulin measurements on 4 hour fasted 8-9 week old Ob/Ob mice (Taconic) were performed. Mice were distributed to a vehicle control group (VC) or a Compound Z treatment group, so that mean s-insulin was equal between the groups. 1 mg/kg bodyweight of Compound Z in PBS/1% v/v DMSO and VC groups were injected intraperitoneally once daily for 2 weeks, after which 4 hour fasted serum insulin levels were measured as described above.

O=C1NC(=Nc2ccccn2)SC1Cc1ccc(F)cc1 (centres unmarked) [Compound X, 5-(4-Fluorobenzyl)-2-(pyridin-2-ylimino)thiazolidin-4-one]
effect on the basal proliferation of MDA-MB-231 cells (MDA-MB-231 cells; Compound X 10 μM without linolenic acid): did not exhibit any detectable effect
inhibition at 10 µM (MDA-MB-231 cells): 70%
antagonism of free fatty acid stimulated cell proliferation (MDA-MB-231 cells): able to antagonize free fatty acid stimulated cell proliferation

Cc1ccc(N=C2NC(=O)C(Cc3cccc(C(F)(F)F)c3)S2)cc1 (centres unmarked) [Compound Z, 5-(3-(Trifluoromethyl)benzyl)-2-(p-tolylimino)thiazolidin-4-one]
inhibition at 10 µM (MDA-MB-231 cells): 50%
antagonism of free fatty acid stimulated cell proliferation (MDA-MB-231 cells): able to antagonize free fatty acid stimulated cell proliferation
hyperinsulinemia (4 hour fasted serum insulin level) (Ob/Ob mice): attenuated hyperinsulinemia

O=C1NC(=Nc2ccc(Cl)cc2)SC1Cc1cccc(C(F)(F)F)c1 (centres unmarked) [Compound Y, 5-(3-(Trifluoromethyl)benzyl)-2-(4-chlorophenylimino)thiazolidin-4-one]
inhibition at 10 µM (MDA-MB-231 cells): 100%
antagonism of free fatty acid stimulated cell proliferation (MDA-MB-231 cells): able to antagonize free fatty acid stimulated cell proliferation
